# US6461997B1, “Triazole sulfones having herbicidal activity” (Monsanto Technology LLC, priority 1999, dated 2002)
# Tests used:
# [1] = system: LOLMG (annual ryegrass); test: Post-emergence herbicidal activity, cool season; assay type: in vivo, Lolium multiflorum; settings: abraded plants sprayed at 300, 100, 30 and 10 g/ha; about 14 days after treatment
# Procedure, shortened: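 Greenhouse-grown seedlings were abraded 9–14 days after planting, then sprayed at 300, 100, 30 and 10 g/ha in acetone:water (3,100 l/ha). Grown at 18/13 °C day/night, percent inhibition versus abraded unsprayed controls was scored about 14 days after treatment and GR80 assigned.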
# [2] = system: SETVI (green foxtail); test: Pre-plant incorporated (PPI) herbicidal activity, cool season; assay type: in vivo, Setaria viridis; settings: for Percent inhibition SETVI: weed, PPI application; for PPI activity GR80, SETVI: pre-plant incorporated, lowest tested rate with 80% or greater inhibition, about 14 days
# Description: (§1) In another set of tests, the pre-plant incorporated (PPI) activity of compounds of this invention was evaluated on the same species as for the pre-emergence tests described above. In the PPI tests the following procedure, designed to simulate PPI application, was used.
# (§2) A pre-prepared topsoil mixture (described above) was placed in a pot and compacted to a depth of 1.0 to 1.25 cm from the top of the pot. Seeds of each of several monocotyledonous and dicotyledonous annual plant species were placed on top of the soil. A sufficient quantity of soil to cover the seeds and level fill the pot was weighed into an open container. A known amount of the test compound was dissolved or suspended in an organic solvent and applied by spraying to this cover soil. The cover soil was thoroughly mixed to distribute the test compound throughout the cover soil, and was then applied as a cover layer over the seeds. Untreated soil was used as a cover layer for control pots. After treatment the plants were placed in a greenhouse where they received 0.64 cm of overhead irrigation. All subsequent watering consisted of a light overhead mist and/or subirrigation as needed for germination and growth. Tables 9 and 10 below relate to warm season plant species which were placed after pre-emergence treatment in a greenhouse with a 30/21° C. day/night temperature regime. Tables 11 and 12 below relates to cool season plant species placed after pre-emergence treatment in a greenhouse or growth chamber with an 18/13° C. day/night temperature regime. Only the compounds of Examples 1, 6, 8, 11, 13 and 15-20 were included in PPI tests.
# (§3) Approximately 14 days after planting and treating, the plants were observed and herbicidal efficacy recorded as percent inhibition by comparison with untreated plants.
# [3] = system: ALOMY (blackgrass); test: as above; assay type: in vivo, Alopecurus myosuroides; settings: for Percent inhibition ALOMY: weed, PPI application; for PPI activity GR80, ALOMY: pre-plant incorporated, lowest tested rate with 80% or greater inhibition, about 14 days
# Description: as §1, §2, §3
# [4] = system: POLCO (wild buckwheat); test: as above; assay type: in vivo, Polygonum convolvulus; settings: for Percent inhibition POLCO: weed, PPI application; for PPI activity GR80, POLCO: pre-plant incorporated, lowest tested rate with 80% or greater inhibition, about 14 days
# Description: as §1, §2, §3
# [5] = system: CHEAL (common lambsquarters); test: Pre-emergence herbicidal activity, warm season; assay type: in vivo, Chenopodium album; settings: GR80 = lowest tested rate (300, 100, 30, 10 g/ha) with 80% or greater inhibition; approx. 14 days after treating; 30/21° C.
# Procedure, shortened: (§4)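 Seeds sown in sterilised fertilised topsoil received surface-applied compound in 50:50 acetone/water, typically at 300, 100, 30 and 10 g/ha, then greenhouse-grown at 30/21° C (warm-season species) or 18/13° C (cool-season species). Percent inhibition versus untreated plants was scored at about 14 days, giving GR80; an asterisk marks activity short of 80% at the top rate.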
# [6] = system: AVEFA (wild oat); test: Pre-plant incorporated (PPI) herbicidal activity, cool season; assay type: in vivo, Avena fatua; settings: for Percent inhibition AVEFA: weed, PPI application; for PPI activity GR80, AVEFA: pre-plant incorporated, lowest tested rate with 80% or greater inhibition, about 14 days
# Description: as §1, §2, §3
# [7] = system: PANDI (fall panicum); test: Pre-plant incorporated (PPI) herbicidal activity, warm season; assay type: in vivo, Panicum dichotomiflorum; settings: for Percent inhibition PANDI: PPI application
# Description: as §1, §2, §3
# [8] = system: SASKR (russian thistle); test: Pre-emergence herbicidal activity, cool season; assay type: in vivo, Salsola kali; settings: lowest tested rate with 80% or greater inhibition; rates 300, 100, 30, 10 g/ha; about 14 days
# Procedure, shortened: as §4
SMILES,"Post-emergence activity GR80, LOLMG [1]",Percent inhibition SETVI ([2]; 30 g/ha) [%],Percent inhibition SETVI ([2]; 100 g/ha) [%],Percent inhibition SETVI ([2]; 300 g/ha) [%],Percent inhibition SETVI ([2]; 900 g/ha) [%],Percent inhibition ALOMY ([3]; 30 g/ha) [%],Percent inhibition ALOMY ([3]; 100 g/ha) [%],Percent inhibition ALOMY ([3]; 300 g/ha) [%],Percent inhibition ALOMY ([3]; 900 g/ha) [%],Percent inhibition POLCO ([4]; 30 g/ha) [%],Percent inhibition POLCO ([4]; 100 g/ha) [%],Percent inhibition POLCO ([4]; 300 g/ha) [%],Percent inhibition POLCO ([4]; 900 g/ha) [%],Pre-emergence activity (GR80) CHEAL [5] [g/ha],Percent inhibition AVEFA ([6]; 30 g/ha) [%],Percent inhibition AVEFA ([6]; 100 g/ha) [%],Percent inhibition AVEFA ([6]; 300 g/ha) [%],Percent inhibition AVEFA ([6]; 900 g/ha) [%],Percent inhibition PANDI ([7]; 30 g/ha) [%],Percent inhibition PANDI ([7]; 100 g/ha) [%],other results
CCN(CC)C(=O)n1cnc(S(=O)(=O)C(F)(F)SC)n1 [Example 9],[empty],99,100,100,100,40,95,100,100,0,0,95,100,300,0,20,100,100,100,100,"Percent inhibition PANDI ([7]; 300 g/ha): 100%; Percent inhibition PANDI ([7]; 900 g/ha): 100%; Pre-emergence activity GR80, SASKR [8]: 300 g/ha"
CCN(CC)C(=O)n1cnc(S(=O)(=O)C(F)(F)SCc2ccccc2)n1 [Example 10],[empty],0,90,100,100,50,100,95,100,0,60,80,95,300,0,20,40,95,50,100,"Percent inhibition ALOMY ([3]; 10 g/ha): 0%; Percent inhibition POLCO ([4]; 10 g/ha): 0%; Percent inhibition AVEFA ([6]; 10 g/ha): 0%; Percent inhibition PANDI ([7]; 10 g/ha): 0%; Percent inhibition PANDI ([7]; 300 g/ha): 100%; Percent inhibition PANDI ([7]; 900 g/ha): 100%; Pre-emergence activity GR80, SASKR [8]: 100 g/ha"
CCN(CC)C(=O)n1cnc(S(=O)(=O)C(F)(F)SCC(=O)OC)n1 [Example 11],[empty],90,99,95,100,0,20,45,100,0,0,0,30,300,0,0,0,60,0,70,"PPI activity GR80, SETVI [2]: 300 g/ha; Percent inhibition SETVI ([2]; 10 g/ha): 80%; PPI activity GR80, ALOMY [3]: 300 g/ha; Percent inhibition ALOMY ([3]; 10 g/ha): 0%; PPI activity GR80, POLCO [4]: * (activity observed, at least at highest rate, but <80% inhibition); Percent inhibition POLCO ([4]; 10 g/ha): 0%; PPI activity GR80, AVEFA [6]: [empty]; Percent inhibition AVEFA ([6]; 10 g/ha): 0%; Percent inhibition PANDI ([7]; 10 g/ha): 0%; Percent inhibition PANDI ([7]; 300 g/ha): 99%; Percent inhibition PANDI ([7]; 900 g/ha): 100%; Pre-emergence activity GR80, SASKR [8]: 300 g/ha"
CCN(CC)C(=O)n1cnc(S(=O)(=O)C(F)(F)SCCOC)n1 [Example 13],[empty],95,100,100,100,90,99,99,100,50,40,80,90,300,0,0,50,90,100,90,"PPI activity GR80, SETVI [2]: 100 g/ha; Percent inhibition SETVI ([2]; 10 g/ha): 30%; PPI activity GR80, ALOMY [3]: 100 g/ha; Percent inhibition ALOMY ([3]; 10 g/ha): 40%; PPI activity GR80, POLCO [4]: * (activity observed, at least at highest rate, but <80% inhibition); Percent inhibition POLCO ([4]; 10 g/ha): 0%; PPI activity GR80, AVEFA [6]: [empty]; Percent inhibition AVEFA ([6]; 10 g/ha): 0%; Percent inhibition PANDI ([7]; 10 g/ha): 40%; Percent inhibition PANDI ([7]; 300 g/ha): 100%; Percent inhibition PANDI ([7]; 900 g/ha): 100%; PPI activity GR80, PANDI ([7]; pre-plant incorporated, lowest tested rate with 80% or greater inhibition, about 14 days): 30 g/ha; Pre-emergence activity GR80, SASKR [8]: [empty]"
